According to publication PMC4212957, “The serodominant secreted effector protein of Salmonella, SseB, is a strong CD4 antigen containing an immunodominant epitope presented by diverse HLA class II alleles” (Immunology, 2014):

Key:
HLA-DRB1*03:01 = target: T1, HLA-DRB1*03:01 (Homo sapiens, UniProt P01903+P01911, A100K/A102G/A103R/A169T/F55Y/I96L/K41T/L162R/M171V/P40S/Q125H/Q178H/Q39Y/R42S/S66N/T106N/T262R/W38E/Y61H); test: Peptide/HLA-DR binding, competitive ELISA; settings: ratio IC50 of peptide / IC50 of reference peptide MT2-16, lower = higher affinity, ratio 20 or less high, 20–100 moderate, three independent experiments
T1 construct: HLA-DR heterodimers were purified from homozygous Epstein–Barr virus B-lymphoblastoid cell lines; host or cells: homozygous EBV B-lymphoblastoid cell line
Method in brief: (§1)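 HLA-DR heterodimers, affinity-purified with L243 from homozygous EBV B-lymphoblastoid lines, were tested in competitive ELISA against biotinylated reference peptides. The IC50 is the peptide concentration inhibiting 50% of labelled-peptide binding, expressed as relative affinity to the unlabelled reference peptide.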

HLA-DRB1*09:01 = target: T2, HLA-DRB1*09:01 (Homo sapiens, UniProt P01903+P01911, A100R/A103E/D57H/D86V/F55Y/F60I/F76Y/I96F/K127E/L162R/M171V/P40D/Q125H/Q99R/R33Q/R42F/S133A/S66N/T210M/V115G/W38K/Y107V/Y59G/Y89S); test: Peptide/HLA-DR binding, competitive ELISA; settings: ratio IC50 of peptide / IC50 of reference peptide CTP 427–441, lower = higher affinity, ratio 20 or less high, 20–100 moderate, three independent experiments
T2 construct: HLA-DR heterodimers were purified from homozygous Epstein–Barr virus B-lymphoblastoid cell lines; host or cells: homozygous EBV B-lymphoblastoid cell line
Method in brief: as §1

HLA-DRB1*12:02 = HLA-DRB1*12:02 (Homo sapiens, UniProt P01903+P01911, A100R/A169T/D57E/D86V/F55L/H45Y/I96F/K41T/L162R/M171V/P40S/Q125H/Q178H/Q39Y/Q99D/R42G/S66L/T262R/V114A/V67L/W38E/Y59H/Y61H/Y89S); test: Peptide/HLA-DR binding, competitive ELISA; settings: ratio IC50 of peptide / IC50 of reference peptide TFR 141–155, lower = higher affinity, ratio 20 or less high, 20–100 moderate, three independent experiments
Method in brief: as §1

[1] = test system: draining lymph node cells of HLA-DR1 transgenic mice; test: Murine IFN-γ ELISpot, HLA-DR1 transgenic mice primed with SseB; settings: mouse, in vivo
Source text: (§2) Mice transgenic for HLA-DR1 (that is, HLA-DRA1*0101/HLA-DRB1*0101) and HLA-DR4 (that is, HLA-DRA1*0101/HLA-DRB1*0401)[24]–[26] were bred and housed in the Centre for Biological Services at the Hammersmith campus, Imperial College London, UK, in accordance with Home Office regulations and College ethics review. Both transgenic lines are maintained on a C57BL/6 background as homozygotes for knockout of murine MHC Class II H2-Aβ.[27]
(§3) HLA-DR1 or HLA-DR4 transgenic mice were primed, by subcutaneous injection into the footpad, with 25 μg of recombinant SseB protein administered as a 1 : 1 emulsion with TiterMax® Gold (CytRx Corporation, Los Angeles, CA). Ten days after priming, popliteal draining lymph nodes were harvested and stimulated, in triplicate, at 2 × 10^5 cells per well with 25 μg of SseB peptide or recombinant protein in pre-coated murine IFN-γ ELISpot plates (2BScientific, Upper Heyford, Oxfordshire, UK). Culture medium was RPMI-1640 containing 2 mM L-glutamine, 50 U/ml penicillin G, 50 μg/ml streptomycin sulphate, 50 μM β-mercaptoethanol and 10% fetal calf serum. Cells were cultured at 37° and in 5% CO2 for 72 hr before assay development using a biotinylated anti-IFN-γ antibody, a horseradish peroxidase detection antibody and TMB substrate (2BScientific). Developed plates were left to dry before spot counting using an AID ELISpot reader (Autoimmun Diagnostika GMBH). Positive epitopes for a given transgenic line were defined as those where more than half of assayed animals gave a greater number of spot-forming cells than 2 SD over the mean of the no protein/peptide control.
(§4) Fig 1 Definition of HLA-DR specific T-cell epitopes in DR1 and DR4 transgenic mice. (a) HLA-DR1 (n = 5) and (b) HLA-DR4 (n = 6) mice were footpad primed with ssEB protein in combination with TiterMax® Gold adjuvant. Draining lymph node (DLN) cells were assayed by ELISpot at day 10 for interferon-γ (IFN-γ) T-cell responses to ssEB peptides and protein. A peptide was defined as containing a T-cell epitope for DR1 or DR4 HLA molecules if more than half of the mice assayed gave a greater number of spot-forming cells than 2 SD over the mean of the no peptide/protein control. The 2 SD value for each transgenic line is shown by a dotted line.

[2] = test system: draining lymph node cells of HLA-DR4 transgenic mice; test: Murine IFN-γ ELISpot, HLA-DR4 transgenic mice primed with SseB; settings: mouse, in vivo
Source text: as §2, §3, §4

11: SseB overlapping library peptide, residues 101–120 (EDVIKYMRDNGILIDGMTID) [Peptide 11]
Relative binding affinity of peptide to HLA-DR molecules DRB1*0301 (HLA-DRB1*03:01): > 119
Relative binding affinity of peptide to HLA-DR molecules DRB1*0901 (HLA-DRB1*09:01): 34
Relative binding affinity of peptide to HLA-DR molecules DRB1*1202 (HLA-DRB1*12:02): 8
IFN-γ ELISpot recall response / CD4 epitope in HLA-DR1 transgenic mice [1]: carry HLA-DR1 restricted immunodominant CD4 epitopes
IFN-γ ELISpot recall response / CD4 epitope in HLA-DR4 transgenic mice [2]: CD4 epitopes detected

AVLTQLTGLISKWGEISSMIAQKTYS [Peptide 18, SseB overlapping library peptide, residues 171–196]
Relative binding affinity of peptide to HLA-DR molecules DRB1*0301 (HLA-DRB1*03:01): > 119
Relative binding affinity of peptide to HLA-DR molecules DRB1*0901 (HLA-DRB1*09:01): 21
Relative binding affinity of peptide to HLA-DR molecules DRB1*1202 (HLA-DRB1*12:02): 4
IFN-γ ELISpot recall response / CD4 epitope in HLA-DR1 transgenic mice [1]: carry HLA-DR1 restricted immunodominant CD4 epitopes
IFN-γ ELISpot recall response / CD4 epitope in HLA-DR4 transgenic mice [2]: not DR4

2: SseB overlapping library peptide, residues 11–30 (QNPIVFKNSFGVSNADTGSQ) [Peptide 2]
Relative binding affinity of peptide to HLA-DR molecules DRB1*0301 (HLA-DRB1*03:01): > 119
Relative binding affinity of peptide to HLA-DR molecules DRB1*0901 (HLA-DRB1*09:01): 10
Relative binding affinity of peptide to HLA-DR molecules DRB1*1202 (HLA-DRB1*12:02): 59
IFN-γ ELISpot recall response / CD4 epitope in HLA-DR1 transgenic mice [1]: carry HLA-DR1 restricted immunodominant CD4 epitopes
